Reference: ChEMBL document CHEMBL1201862, “PubChem BioAssay data set” (2004)
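Tested at 5 concentrations; 48 h exposure; 96-well plates; endpoints linearly interpolated, else capped at highest concentration. Abbreviation: GI50, concentration required for 50% inhibition of growth.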 Calls of active or inactive are those of the source. Rule as the data show it: active = GI50 up to about 1.1 µM and inactive = higher.

Assays:
Test in all cases: NCI anticancer screen, dose series, 48 h
NCI-H226 = tested on: NCI-H226
IGROV-1 = tested on: IGROV-1
T47D = tested on: T47D
PC-3 = tested on: PC-3
RXF 393 = tested on: RXF 393
OVCAR-4 = tested on: OVCAR-4
CAKI-1 = tested on: CAKI-1
HOP-62 = tested on: HOP-62
ACHN = tested on: ACHN
RPMI-8226 = tested on: RPMI-8226
HCC 2998 = tested on: HCC 2998
SF-539 = tested on: SF-539
SK-MEL-5 = tested on: SK-MEL-5
NCI-H23 = tested on: NCI-H23
LOX IMVI = tested on: LOX IMVI
EKVX = tested on: EKVX
NCI/ADR-RES = tested on: NCI/ADR-RES
COLO 205 = tested on: COLO 205
OVCAR-3 = tested on: OVCAR-3
MDA-MB-231 = tested on: MDA-MB-231
TK-10 = tested on: TK-10
M14 = tested on: M14
SF-268 = tested on: SF-268
UO-31 = tested on: UO-31
SF-295 = tested on: SF-295
UACC-257 = tested on: UACC-257
SK-OV-3 = tested on: SK-OV-3
MDA-MB-435 = tested on: MDA-MB-435
DU-145 = tested on: DU-145
HT-29 = tested on: HT-29
SR = tested on: SR
Malme-3M = tested on: Malme-3M
MOLT-4 = tested on: MOLT-4
HCT-15 = tested on: HCT-15
SNB-19 = tested on: SNB-19
BT-549 = tested on: BT-549
786-0 = tested on: 786-0
HCT-116 = tested on: HCT-116
OVCAR-5 = tested on: OVCAR-5
KM12 = tested on: KM12
SK-MEL-28 = tested on: SK-MEL-28
K562 = tested on: K562
SK-MEL-2 = tested on: SK-MEL-2
A549 = tested on: A549
SW-620 = tested on: SW-620
OVCAR-8 = tested on: OVCAR-8
SN12C = tested on: SN12C
NCI-H522 = tested on: NCI-H522
HOP-92 = tested on: HOP-92
Hs-578T = tested on: Hs-578T
U-251 = tested on: U-251
SNB-75 = tested on: SNB-75
A498 = tested on: A498
NCI-H460 = tested on: NCI-H460
CCRF-CEM = tested on: CCRF-CEM
HL-60 = tested on: HL-60
MCF7 = tested on: MCF7
UACC-62 = tested on: UACC-62
MDA-N = tested on: MDA-N

CC12CCC([C@H](Nc3cc(C(F)(F)F)cc(C(F)(F)F)c3)C1=O)C2(C)C (some centres not stated) was tested, and the GI50 (NCI-H226) was > 100 µM (inactive), the GI50 (IGROV-1) was 47.3 µM (inactive) and the GI50 (T47D) was > 100 µM (inactive). For the same compound, the GI50 (PC-3) was > 100 µM (inactive), the GI50 (RXF 393) was 0.0162 µM (active) and the GI50 (OVCAR-4) was > 100 µM (inactive). The GI50 (CAKI-1) was > 100 µM (inactive), the GI50 (HOP-62) was 33.7 µM (inactive) and the GI50 (ACHN) was > 100 µM (inactive). For the same compound, the GI50 (RPMI-8226) was 0.158 µM (active), the GI50 (HCC 2998) was > 100 µM (inactive) and the GI50 (SF-539) was > 100 µM (inactive). The GI50 (SK-MEL-5) was > 100 µM (inactive), the GI50 (NCI-H23) was > 100 µM (inactive) and the GI50 (LOX IMVI) was > 100 µM (inactive). For the same compound, the GI50 (EKVX) was > 100 µM (inactive), the GI50 (NCI/ADR-RES) was > 100 µM (inactive) and the GI50 (COLO 205) was > 100 µM (inactive). The GI50 (OVCAR-3) was 16.8 µM (inactive), the GI50 (MDA-MB-231) was > 100 µM (inactive) and the GI50 (TK-10) was > 100 µM (inactive). The GI50 (M14) was > 100 µM (inactive), the GI50 (SF-268) was > 100 µM (inactive) and the GI50 (UO-31) was > 100 µM (inactive). For the same compound, the GI50 (SF-295) was 37.4 µM (inactive), the GI50 (UACC-257) was > 100 µM (inactive) and the GI50 (SK-OV-3) was > 100 µM (inactive). The GI50 (MDA-MB-435) was > 100 µM (inactive), the GI50 (DU-145) was > 100 µM (inactive) and the GI50 (HT-29) was 84.3 µM (inactive). For the same compound, the GI50 (SR) was > 100 µM (inactive), the GI50 (Malme-3M) was > 100 µM (inactive) and the GI50 (MOLT-4) was > 100 µM (inactive). For the same compound, the GI50 (HCT-15) was over 100 µM, the GI50 (SNB-19) was > 100 µM (inactive) and the GI50 (BT-549) was > 100 µM (inactive). The GI50 (786-0) was > 100 µM (inactive), the GI50 (HCT-116) was > 100 µM (inactive) and the GI50 (OVCAR-5) was > 100 µM (inactive). The GI50 (KM12) was > 100 µM (inactive), the GI50 (SK-MEL-28) was > 100 µM (inactive) and the GI50 (K562) was > 100 µM (inactive). The GI50 (SK-MEL-2) was > 100 µM (inactive), the GI50 (A549) was > 100 µM (inactive) and the GI50 (SW-620) was > 100 µM (inactive). For the same compound, the GI50 (OVCAR-8) was > 100 µM (inactive).
For COc1cc(C2c3cc4c(cc3OC(N3CCOCC3)C2C)OCO4)cc(OC)c1O (configuration not stated), the GI50 (SN12C) was 13.7 µM (inactive), the GI50 (NCI-H226) was 22.6 µM (inactive) and the GI50 (IGROV-1) was 7.6 µM (inactive). The GI50 (T47D) was 9.04 µM (inactive), the GI50 (PC-3) was 6.19 µM (inactive) and the GI50 (RXF 393) was 14.7 µM (inactive). The GI50 (OVCAR-4) was 36.6 µM (inactive), the GI50 (CAKI-1) was 11.5 µM (inactive) and the GI50 (HOP-62) was 9.57 µM (inactive). For the same compound, the GI50 (NCI-H522) was 2.8 µM (inactive), the GI50 (HOP-92) was 12.8 µM (inactive) and the GI50 (ACHN) was 12.2 µM (inactive). The GI50 (Hs-578T) was 3.18 µM (inactive), the GI50 (U-251) was 7.52 µM (inactive) and the GI50 (RPMI-8226) was 8.2 µM (inactive). For the same compound, the GI50 (HCC 2998) was 10.5 µM (inactive), the GI50 (SF-539) was 5.66 µM (inactive) and the GI50 (SK-MEL-5) was 3.18 µM (inactive). For the same compound, the GI50 (NCI-H23) was 24.8 µM (inactive), the GI50 (LOX IMVI) was 6.7 µM (inactive) and the GI50 (SNB-75) was 1.79 µM (inactive). For the same compound, the GI50 (EKVX) was 36.2 µM (inactive), the GI50 (A498) was 15.1 µM (inactive) and the GI50 (NCI-H460) was 5.09 µM (inactive). For the same compound, the GI50 (NCI/ADR-RES) was 3.35 µM (inactive), the GI50 (COLO 205) was 15.6 µM (inactive) and the GI50 (OVCAR-3) was 5.42 µM (inactive). For the same compound, the GI50 (MDA-MB-231) was 10.1 µM (inactive), the GI50 (CCRF-CEM) was 3.14 µM (inactive) and the GI50 (TK-10) was 18.7 µM (inactive). For the same compound, the GI50 (M14) was 7.29 µM (inactive), the GI50 (SF-268) was 17.7 µM (inactive) and the GI50 (UO-31) was 14.8 µM (inactive). For the same compound, the GI50 (SF-295) was 3.59 µM (inactive), the GI50 (HL-60) was 3.52 µM (inactive) and the GI50 (MCF7) was 5.35 µM (inactive). For the same compound, the GI50 (UACC-257) was 17.8 µM (inactive), the GI50 (SK-OV-3) was 5.69 µM (inactive) and the GI50 (MDA-MB-435) was 2.1 µM (inactive). For the same compound, the GI50 (DU-145) was 29.7 µM (inactive), the GI50 (HT-29) was 4.04 µM (inactive) and the GI50 (SR) was 3.82 µM (inactive). The GI50 (Malme-3M) was 3.29 µM (inactive), the GI50 (MOLT-4) was 3.18 µM (inactive) and the GI50 (HCT-15) was 2.87 µM. For the same compound, the GI50 (SNB-19) was 22.3 µM (inactive), the GI50 (BT-549) was 7.43 µM (inactive) and the GI50 (786-0) was 10.1 µM (inactive). For the same compound, the GI50 (HCT-116) was 4.13 µM (inactive), the GI50 (OVCAR-5) was 46.6 µM (inactive) and the GI50 (KM12) was 4.73 µM (inactive). The GI50 (SK-MEL-28) was 12.9 µM (inactive), the GI50 (K562) was 3.38 µM (inactive) and the GI50 (UACC-62) was 3.73 µM (inactive). The GI50 (SK-MEL-2) was 6.9 µM (inactive), the GI50 (A549) was 8.91 µM (inactive) and the GI50 (SW-620) was 3.84 µM (inactive). For the same compound, the GI50 (OVCAR-8) was 14.2 µM (inactive).
In the case of Cc1ccc2c(O)cc(-c3cccc(Cl)c3)nc2n1, the GI50 (NCI-H226) is reported as 0.0489 µM (active), the GI50 (IGROV-1) is reported as 0.0155 µM (active) and the GI50 (OVCAR-4) is reported as > 62.1 µM (inactive). The GI50 (CAKI-1) was 0.0415 µM (active), the GI50 (HOP-62) was 0.0305 µM (active) and the GI50 (NCI-H522) was < 0.01 µM (active). For the same compound, the GI50 (HOP-92) was 1.25 µM (inactive), the GI50 (ACHN) was 0.313 µM (active) and the GI50 (Hs-578T) was 0.028 µM (active). For the same compound, the GI50 (U-251) was 0.0308 µM (active), the GI50 (RPMI-8226) was < 0.0212 µM (active) and the GI50 (HCC 2998) was 0.12 µM (active). The GI50 (MDA-N) was 1 µM (active), the GI50 (SF-539) was < 0.01 µM (active) and the GI50 (SK-MEL-5) was < 0.0177 µM (active). The GI50 (NCI-H23) was 0.272 µM (active), the GI50 (LOX IMVI) was 0.024 µM (active) and the GI50 (EKVX) was > 68.1 µM (inactive). The GI50 (A498) was 0.0333 µM (active), the GI50 (NCI-H460) was < 0.0204 µM (active) and the GI50 (NCI/ADR-RES) was 0.0411 µM (active). The GI50 (COLO 205) was 0.0308 µM (active), the GI50 (OVCAR-3) was < 0.01 µM (active) and the GI50 (MDA-MB-231) was 0.0537 µM (active). For the same compound, the GI50 (CCRF-CEM) was < 0.0238 µM (active), the GI50 (TK-10) was > 59.8 µM (inactive) and the GI50 (M14) was 0.0306 µM (active). The GI50 (SF-268) was 0.59 µM (active), the GI50 (UO-31) was 0.902 µM (active) and the GI50 (SF-295) was < 0.0151 µM (active). The GI50 (HL-60) was < 0.0169 µM (active), the GI50 (MCF7) was < 0.0217 µM (active) and the GI50 (UACC-257) was 0.0393 µM (active). For the same compound, the GI50 (SK-OV-3) was 0.0411 µM (active), the GI50 (MDA-MB-435) was < 0.01 µM (active) and the GI50 (DU-145) was 0.194 µM (active). For the same compound, the GI50 (HT-29) was < 0.0179 µM (active), the GI50 (SR) was 0.0266 µM (active) and the GI50 (Malme-3M) was 0.0661 µM (active). For the same compound, the GI50 (MOLT-4) was < 0.0229 µM (active), the GI50 (HCT-15) was under 0.0192 µM and the GI50 (SNB-19) was 0.0705 µM (active). The GI50 (BT-549) was 0.278 µM (active), the GI50 (786-0) was < 0.0255 µM (active) and the GI50 (HCT-116) was < 0.016 µM (active). The GI50 (KM12) was < 0.0196 µM (active), the GI50 (SK-MEL-28) was 0.0916 µM (active) and the GI50 (K562) was < 0.0169 µM (active). For the same compound, the GI50 (UACC-62) was < 0.01 µM (active), the GI50 (SK-MEL-2) was 0.0324 µM (active) and the GI50 (A549) was 0.0325 µM (active). The GI50 (SW-620) was < 0.01 µM (active) and the GI50 (OVCAR-8) was 0.115 µM (active).
